From PubChem BioAssay (NCI)
“And” between values parts separate entries of the source, which are not always exact repeats. Identical values can stand only once.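 Step 1: Grow cells in 96-well plates. Step 2: Expose to compound for 48 hours at 5 concentrations. Step 3: Interpolate endpoints linearly; if unreached, use highest concentration. Abbreviation: GI50, concentration required for 50% inhibition of growth. The concentration for full growth arrest is given as TGI.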 Where a SMILES comes first, the peptide text is derived from it. The star is where a group is joined. OSu = O=C1CCC(=O)N1O*

Columns and labels:
Assay in all cases: NCI-60 cell line screen, 48 h
SR leukemia = test system: SR leukemia
ACHN renal = test system: ACHN renal
HCT-116 colon = test system: HCT-116 colon
IGROV1 ovarian = test system: IGROV1 ovarian
NCI-H522 lung = test system: NCI-H522 lung
SNB-19 CNS = test system: SNB-19 CNS
COLO 205 colon = test system: COLO 205 colon
CAKI-1 renal = test system: CAKI-1 renal
MDA-MB-435 = test system: MDA-MB-435
A498 renal = test system: A498 renal

| SMILES | TGI (SR leukemia) [µM] | TGI (ACHN renal) [µM] | TGI (HCT-116 colon) [µM] | TGI (IGROV1 ovarian) [µM] | TGI (NCI-H522 lung) | TGI (SNB-19 CNS) | TGI (COLO 205 colon) [µM] | TGI (CAKI-1 renal) [µM] | TGI (MDA-MB-435) [µM] | TGI (A498 renal) [µM] | GI50 (SNB-19 CNS) |
| --- | --- | --- | --- | --- | --- | --- | --- | --- | --- | --- | --- |
| CCOC1CCN(C(=O)c2ccccc2)O1 (stereo not drawn) | > 10 | > 10 | > 10 | > 10 | > 10 µM | > 10 µM | > 10 | > 10 | > 10 |  |  |
| OC12c3ccccc3C1CCCCCC21OCCCO1 (stereo not drawn) |  | > 100 | > 100 | > 100 | > 100 µM | > 100 µM | > 100 | > 100 |  | > 100 |  |
| COc1cc(OC)c(OC)cc1/C=C/c1cc[n+](C)c2ccccc12 | > 100 | > 100 | > 100 | > 100 |  | > 100 µM | 19 | > 100 |  | > 100 |  |
| NCCCCC(NC(=O)C(N)Cc1ccc(O)cc1)C(=O)NC(Cc1ccc(O)cc1)C(=O)NC(CCCCN)C(=O)ON1C(=O)CCC1=O (stereo not drawn) (H-YKYK-OSu; configuration not given here) | > 100 | > 100 | > 100 | > 100 |  | > 100 µM | > 100 |  |  | > 100 |  |
| O=C1/C(=C/c2ccccc2)CCCc2ccccc21 | 37.8 | 47 | 30.7 | 38.8 | 51.6 µM | 29.3 µM | 33.3 | 76.2 | 38.9 |  |  |
| CCOc1cc(-c2nc3cc(F)ccc3s2)ccc1O |  | 29.9 | 47.3 | 26 | 24.2 µM | 30.7 µM | 34.6 | 32.2 | 33.8 | 26.2 |  |
| C=CCn1c(=N)/c(=C(\N)O)s/c1=C1/SC(=S)N(c2ccc(C)cc2)C1=O | > 100 | > 100 | > 100 | > 100 | > 100 µM | > 100 µM | > 100 |  |  | > 100 |  |
| COc1cc2c(c(OC)c1OC)-c1ccc(SC)c(=O)cc1C(CC(=O)Oc1cccc(F)c1)C2 (stereo not drawn) | 1.47 | > 100 | 1.06 | > 100 | 0.241 µM | > 100 µM | 0.555 | > 73.7 |  |  |  |
| CCn1c(CSc2nc(-c3ccccc3)c(-c3ccccc3)[nH]2)n[nH]c1=S | > 100 | > 100 | > 100 | > 100 | > 100 µM | > 100 µM | > 100 |  |  | > 100 |  |
| [N-]=[N+]=Nc1ccc2c(c1)Sc1ccccc1N2CCCCN1CCN(C(=O)CCNC(=O)Cc2ccc(C(=O)c3ccccc3)cc2)CC1 |  | > 60.5 | 18.9 | > 35.5 | 7.51 µM | > 56.4 µM | 8.92 | > 100 | 6.44 | > 35.9 |  |
| COc1ccc2c3c1OC1C(OC)(OC)CC4(C=C2)CN(C)CCC314 (stereo not drawn) |  | > 100 | > 100 | > 100 |  | > 100 µM | > 100 | > 100 | > 100 | > 100 |  |
| COc1cc(C2c3cc4c(cc3[C@@H](N(C)c3ccc(N(C)C)cc3)C3COC(=O)C23)OCO4)cc(OC)c1O (stereo partly drawn) | 44.2 | 18.8 | 14.8 | 31.5 | 0.553 µM | 42.6 µM | 4.23 | 25 |  | > 100 |  |
| COC(=O)C1(O)C(c2ccccc2)NC2(C)CCCC21 (stereo not drawn) |  | > 100 | > 100 | > 100 | > 100 µM | > 100 µM | > 100 | > 100 | > 100 | > 100 |  |
| CN(C)N=Nc1ccc2[nH]c(=O)[nH]c2c1 |  | > 100 | > 100 | > 100 | > 100 µM | > 100 µM | > 100 | > 100 | > 100 | > 100 |  |
| Cc1ccc(C2C(Cl)C(=O)N2NC(=O)c2ccc(N)cc2)cc1 (stereo not drawn) |  | > 100 | 28.3 | 25.2 | 25.6 µM | 33.5 µM | 44.6 | 38.3 |  | 56.4 |  |
| CC12CCC(CC1(Cl)Cl)C2 (stereo not drawn) | > 100 | > 100 |  | > 100 | > 100 µM | > 100 µM | > 100 | > 100 | > 100 |  |  |
| Cc1cn(C2OC(CO)C(O)C2F)c(=O)[nH]c1=O (stereo not drawn) |  | > 100 | > 100 | > 100 | > 100 µM | > 100 µM | > 100 | > 100 | > 100 | > 100 |  |
| CC[n+]1c(/C=C/c2ccc(N(CCCl)CCCl)cc2)ccc2cc(I)ccc21 | 2.42 | 9.37 |  | 8.27 | 1.64 µM | 2.35 µM |  | 6.19 |  | 13.1 |  |

| SMILES | TGI (SR leukemia) [µM] | TGI (ACHN renal) [µM] | TGI (HCT-116 colon) [µM] | TGI (IGROV1 ovarian) [µM] | TGI (NCI-H522 lung) | TGI (SNB-19 CNS) | TGI (COLO 205 colon) [µM] | TGI (CAKI-1 renal) [µM] | TGI (MDA-MB-435) [µM] | TGI (A498 renal) [µM] | GI50 (SNB-19 CNS) |
| --- | --- | --- | --- | --- | --- | --- | --- | --- | --- | --- | --- |
| OC12CCC3(O)c4ccccc4C3C1c1ccccc12 (stereo not drawn) | > 100 | > 100 | > 100 |  | > 100 µM | > 100 µM | > 100 |  |  |  |  |
| C[C@H]1O[C@@H](C(C)(C)C)OC(=O)[C@@H]1C(OC(=O)c1ccccc1)c1cccc2ccccc12 (stereo partly drawn) | > 100 | > 100 | > 100 | > 100 | > 100 µM | > 100 µM | > 100 | > 100 | > 100 |  |  |
| O=C(Nc1ccc2cc3ccccc3cc2c1)c1cc2c(cc1Cl)Sc1nccn1S2(=O)=O | > 100 | > 100 | > 100 | > 100 | > 100 µM | > 100 µM | > 100 | > 100 | > 100 |  |  |
| CN1NC(c2ccccc2)=C(C#N)C(=O)CC1c1ccc(Br)cc1 (stereo not drawn) | > 100 | > 100 | > 100 |  | 53.7 µM | > 100 µM |  | > 100 |  | > 100 |  |
| O=C(O)c1ccc(Nc2nc3nn(Cc4ccccc4)cc3c(=O)s2)cc1 | > 100 | > 100 | > 100 | > 100 | > 100 µM | > 100 µM | > 100 |  |  |  |  |
| Cc1ccc(SCC(OCn2cnc3c(Cl)nc(N)nc32)[C@H](C)F)cc1 (stereo partly drawn) | > 100 | > 100 | > 100 | > 100 | 29.4 µM | > 100 µM | > 100 | > 100 | > 100 |  |  |
| COCOc1cc(OC)ccc1C/C(=N/O)C(=O)OC |  | > 100 | > 100 | > 100 | > 100 µM | > 100 µM | > 100 | > 100 | > 100 |  |  |
| O/N=C\C(=Nc1ccc(Cc2ccc(N=C(/C=N\O)NO)cc2)cc1)NO |  | > 100 | > 100 | > 100 | > 100 µM | > 100 µM | > 100 | 69.2 |  | > 100 |  |
| CCOC(=O)/C=C(/C(=O)OCC)n1ccc(=O)n(Cc2cnnn2CCCCOC(C)=O)c1=O | > 100 | > 100 | > 100 | > 100 | 42.6 µM | > 100 µM | 46 | 76.3 | > 100 |  |  |
| C/C(O)=C(\C=NC(=S)c1ccncc1)C(=O)Nc1ccccc1C |  | > 100 | > 100 | > 100 |  | > 100 µM | > 100 | > 100 | > 100 | > 100 |  |
| C/C(O[Si](C(C)C)(C(C)C)C(C)C)=C(\C)C(=O)N(C)c1ccccc1Cl |  | > 100 | > 100 | > 100 | > 100 µM | > 100 µM | > 100 | > 100 | > 100 | > 100 |  |
| O=C(c1ccco1)N(C(=S)N1CCN(c2ccccn2)CC1)c1ccccc1 | > 100 | > 100 | > 100 | > 100 | > 100 µM | > 100 µM | > 100 | > 100 |  |  |  |
| Cc1ccc(S(=O)(=O)NC(=O)NC(CCC(N)=O)C(=O)O)cc1 (stereo not drawn) | > 100 | > 100 | > 100 | > 100 | > 100 µM | > 100 µM | > 100 |  |  |  |  |
| Cc1nc(Nc2ccc(Cl)c(Cl)c2)sc1C(=O)/C=C/c1ccc2c(c1)OCO2 |  | 45.1 | 49.4 | > 100 |  | 51.9 µM | 60.6 | 32.6 | 48.4 | 47.8 |  |
| O=C(NC1(C(=O)O)CCCC1)c1ccccc1 |  | > 100 | > 100 | > 100 | > 100 µM | > 100 µM | > 100 | > 100 | > 100 | > 100 |  |
| CN(C)c1ccc(/C=C(\NC(=O)c2ccccc2)C(=O)NC(Cc2c[nH]c3ccccc23)C(=O)O)cc1 (stereo not drawn) |  | > 100 | > 100 | > 100 | > 100 µM | > 100 µM | > 100 | > 100 | > 100 | > 100 |  |
| COC(=O)CC(C(C(C)=O)C(=O)OCc1ccccc1)N1C(=O)OC(c2ccccc2)C1c1ccccc1 (stereo not drawn) | > 100 | > 100 | > 100 | > 100 | 65.8 µM and > 100 µM | 91.7 µM and > 100 µM | > 100 | > 100 |  |  | 10.5 µM and > 100 µM |
| COc1ccc(/C(Cl)=C(\C=O)c2ccc(Cl)cc2)cc1OC | 5.81 | 13.1 | 33.3 | 30.1 | 6.27 µM | > 100 µM | 13.2 | 49.2 |  | 54.3 |  |
